In US20210315927A1, “TREATING ARDS USING A POLY-OXYGENATED ALUMINUM HYDROXIDE” (HEMOTEK LLC, priority 2020, published 2021):

System: mechanically-induced ARDS in rodents
Parameters: species or system male Sprague Dawley rats
Details: rat, in vivo
Source text: The following protocol and experimental procedures were approved by the Thomas D Morris, Inc. Institutional Animal Care and Use Committee (Protocol #20-007) and are consistent with the National Institutes of Health guidelines for the humane treatment of laboratory animals. Study subjects were male Sprague Dawley rats (N=21; 250-300 g; 8-10 weeks old; Charles River Laboratories, Inc., Wilmington, Mass. housed in pairs with a 12/12 day night cycle and provided ad libitum access to feed and water.
Animals were inducted with 1-5% isoflurane in air for initial preoperative preparation and cannulations. The anesthetic plane was maintained with a continuous intravenous infusion (0.1 mg/kg/min) into a femoral vein using a pre-filled syringe of alfaxalone acetate (Alfaxan, Schering-Plough Animal Health, Welwyn Garden City, UK) that was connected to a syringe pump (Genie Touch™, Kent Scientific, Torrington, Conn.). A second femoral vein was cannulated to be used for infusion of IV treatments. A femoral artery cannula was connected to a pressure transducer for continuous monitoring of arterial blood pressures (BIOPAC MP-150, BIOPAC Systems, Goleta, Calif.). The same femoral artery cannula was also used to collect blood samples for analysis of blood gases and chemistry (ABL90 Flex, Radiometer, Denmark). […]

In the case of “poly-oxygenated aluminum hydroxide [Ox66™]”, the “supraphysiologic levels of PAO2 or sO2” value is reported as “did not show supraphysiologic levels of PAO2 or sO2”.
